Like-named read-outs stand apart in the source and are kept apart here.
Columns and labels:
[1] = tested on: IL-1α-stimulated bEnd.3 cells; test: Coaguligand-induced Factor Xa formation, chromogenic assay; format: cell-based, mouse; conditions: 10 μg per ml Annexin V
Description: The ability of Annexin V to affect Factor Xa formation induced by coaguligand was determined by a chromogenic assay. IL-1α-stimulated bEnd.3 cells were incubated with anti-VCAM-·tTF and permeabilized by saponin. Annexin V was added at concentrations ranging from 0.1 to 10 μg/ml and cells were incubated for 30 min. before addition of diluted Proplex T. The amount of Factor Xa generated in the presence or absence of Annexin V was determined. Each treatment was performed in duplicate and repeated at least twice.

[2] = Reactivity with plastic-immobilized phospholipid; conditions: read-out: EC50 of binding
Description: Phospholipids were dissolved in n-hexane to a concentration of 50 μg/ml. 100 μl of this solution was added to wells of 96-well microtiter plates. After evaporation of the solvent in air, the plates were blocked for 2 h with 10% fetal bovine serum diluted in DPBS containing 2 mM Ca^2+ (binding buffer).
9D2 antibody or annexin V were diluted in the binding buffer in the presence of 10% serum at an initial concentration of 6.7 nM. Serial two-fold dilutions were prepared in the plates (100 μl per well). The plates were then incubated for 2 h at room temperature. The plates were washed and the 9D2 and annexin V were detected by goat anti-rat IgM conjugated to HRP and rabbit anti-human annexin V followed by goat anti-rabbit IgG conjugated to HRP (all diluted 1:1000), respectively. Secondary reagents were detected by using chromogenic substrate OPD followed by reading plates at 490 nm using a microplate reader (Molecular Devices, Palo Alto, Calif.).
The specificity of the 9D2 antibody binding was validated by using control rat IgM of irrelevant specificity (Pharmingen, San Diego, Calif.). The specificity of annexin V binding to phospholipids, which is Ca^2+-dependent, was determined by diluting the reagent in the DPBS containing 5 mM EDTA. Additional negative controls consisted of washing the plates with the binding buffer containing 0.2% of a detergent Tween 20. This treatment extracts lipids, thus removing the phospholipid that was absorbed to plastic. Neither 9D2 antibody nor annexin V bound to detergent-washed plates.

L540 Hodgkin tumors = test: Annexin V inhibition of coaguligand-induced thrombosis in vivo; set-up: species or system mouse
Description: The ability of Annexin V to inhibit coaguligand-induced thrombosis in vivo was examined in L540 Hodgkin-bearing SCID mice. Tumors were grown in mice and two mice per group (tumor size 0.5 cm in diameter) were injected intravenously via the tail vein with one of the following reagents: a) saline; b) 100 μg of Annexin V; c) 40 μg of anti-VCAM-1·tTF; d) 100 μg of Annexin V followed 2 hours later by 40 μg of anti-VCAM-1·tTF.
Four hours after the last injection mice were anesthetized and perfused with heparinized saline. Tumors were removed, fixed with 4% formalin, paraffin-embedded and stained with hematoxylene-eosin. The number of thrombosed and non-thrombosed blood vessels was counted and the percentage of thrombosis was calculated.

WiDr (colon carcinoma) = test: WiDr colon carcinoma model; format: in vivo, mouse; conditions: 100 μg 3×/week from day 5; preliminary study
Description: Treatment was started on day 5, when the tumors were small (10 mice per group). 100 μg of each antibody was injected 3×/week and tumor growth monitored.

human CMV AD169 = test: CMV-GFP spread by fluorescent microscopy
tumors = test: 3G4 in syngeneic and xenogeneic tumor models (overall); format: in vivo; conditions: 100 μg i.p. 3 times a week
[3] = 3G4 toxicity studies in mice; format: in vivo, mouse
Text: The following parameters were specifically examined.
Mice retain normal physical signs, bone marrow cellularity, white blood cell counts, histology and coagulation functions.

With “Annexin V: High affinity PS binding ligand; natural ligand binding anionic phospholipids and PE” the “inhibition of factor Xa production” value [1] was 58%, the EC50 ([2]; CL) was 0.13 nM and the EC50 ([2]; PA) was 0.1 nM. The EC50 ([2]; PC) was > 8 nM, the EC50 ([2]; PE) was 0.1 nM and the EC50 ([2]; PG) was 0.25 nM. The EC50 ([2]; PI) was 0.05 nM, the EC50 ([2]; PS) was 0.1 nM and the EC50 ([2]; SM) was > 8 nM. The “coaguligand-induced intravascular thrombosis and changes in tumor cell morphology” value (L540 Hodgkin tumors; 100 μg Annexin V 2 hours before 40 μg coaguligand) was “completely abolished” and the tumor morphology (L540 Hodgkin tumors; 100 μg Annexin V alone) was “did not alter tumor morphology”.

B1: 3G4: Mouse IgG3 kappa monoclonal antibody to PS and anionic phospholipids; binding mediated by β2-glycoprotein I (antibody, listed as Mus musculus)
VH: MGWTWIFILILSVTTGVHSEVQLQQSGPELEKPGASVKLSCKASGYSFTGYNMNWVKQSHGKSLEWIGHIDPYYGDTSYNQKFRGKATLTVDKSSSTAYMQLKSLTSEDSAVYYCVKGGYYGHWYFDVWGAGTTVTVSSATTTAPSVYPLVP
VL: MDMRAPAQILGFLLLLFPGTRCDIQMTQSPSSLSASLGERVSLTCRASQDIGSSLNWLQQGPDGTIKRLIYATSSLDSGVPKRFSGSRSGSDYSLTISSLESEDFVDYYCLQYVSSPPTFGAGTKLELKRADAAPTVFIFGRIP
For B1, the tumor growth (WiDr (colon carcinoma)) was “slowed tumor growth to essentially the same degree”, the cell-to-cell spread (human CMV AD169; 100 μg/ml and 50 μg/ml) was “complete inhibition of cell-to-cell spread” and the “entry of the virus into the cells” value (human CMV AD169; day 3, 50 and 100 μg/ml) was “does not appear to significantly inhibit the entry of the virus”. The “viral spread in monolayer” value (human CMV AD169; day 9, 100 μg/ml and 50 μg/ml, control wells approximately 80% infected) was “restricted to the original singly-infected cell”, the “toxicity in tumor-bearing mice” value (tumors) was “No toxicity was observed” and the “blood coagulation parameters (PT, APTT, D-dimer)” value ([3]; 100 μg IP three times a week) was “normal”. For the same molecule, the toxicity ([3]; 1 mg purified antibody intraperitoneally) was “no toxicity was observed”, the “physical signs of toxicity” value ([3]; BALB/c mice, 100 μg IP three times a week for 2 to 4 weeks) was “No physical signs of toxicity have been observed” and the “physical signs of toxicity” value ([3]; single i.p. 2 mg, or 0.5 mg daily for 14 days) was “showed no physical signs of toxicity”. For the same molecule, the “Bone marrow cellularity and composition” value ([3]; six injections, 100 μg) was “normal”.

Source: patent US20160311886A1, “Constructs Binding to Phosphatidylserine and Their Use in Disease Treatment and Imaging” (Board of Regents, The University of Texas System, priority 2005, published 2016)
